In patent US10391111B2, “Composition for preventing or treating cervical cancer including gypenoside LXXV” (INTELLIGENT SYNTHETIC BIOLOGY CENTER, priority 2015, dated 2019):
Entries after “also recorded” stand apart in the source; their conditions may differ. Like-named read-outs stand apart in the source and are kept apart here.

Tested on: HeLa cells
Assay: MTT assay of HeLa cell viability (cytotoxic / anti-proliferative effect)
Format: cell-based
Details: for inhibition of HeLa cells: 50 μM; for effect on cell division: HeLa cells, 2.5 μM to 100 μM; for CC50: read-out: LC50 values against HeLa cells
Description: HeLa cells were cultured in DMEM (Dulbecco's Modified Eagle's Medium) containing 10% FBS, 2 mmol/L of glutamine, 100 U/mL penicillin, and […] of streptomycin at 37° C. under 5% CO2 condition. An appropriate amount of GypLXXV in DMSO (dimethyl sulfoxide) was taken according to a final concentration as described and added to the culture medium.
In vitro chemosensitivity was measured by MTT (dimethyl thiazolyl-2,5-diphenyltetrazolium bromide) assay (CellTiter 96® Non-Radioactive Cell Proliferation Assay kit. Promega), 100 μl of HeLa cells were dispensed at a density of 10^4 cells per well in a 96-well plate, and incubated for 24 hrs. To measure anti-proliferative effects of GypLXXV. Rg3(S). Rb1 and GypXVII, 2.5 μM to 100 μM of the compound was diluted with a FBS-free medium, and added to each well. Thereafter, the cells treated with the compound were incubated at 37° C. for 48 hrs, and MTT was added to each well, followed by further incubation for 4 hrs. After aspiration of the culture medium, formazan formed from MTT was dissolved in 100 μl of solubilization/stop solution. Thereafter, optical density of each well was measured at a wavelength of 595 nm using a microplate reader. Results were expressed as LC50 values analyzed using a GraphPad Prism 5 program.

Structure (SMILES) | inhibition of HeLa cells (48 hrs) | anti-cancer / anti-proliferative effect compared with the other compounds (FIG. 2) (HeLa cell viability, 48 hrs) | effect on cell division | CC50 (Homo sapiens, HeLa, 48 h) | CC50 (MTT assay, 48 hrs incubation, 2.5 μM to 100 μM compound, FBS-free medium)
CC(C)=CCC[C@](C)(O[C@@H]1O[C@H](CO[C@@H]2O[C@H](CO)[C@@H](O)[C@H](O)[C@H]2O)[C@@H](O)[C@H](O)[C@H]1O)[C@H]1CC[C@]2(C)[C@@H]1[C@H](O)C[C@@H]1[C@@]3(C)CC[C@H](O)C(C)(C)[C@@H]3CC[C@]12C [GypLXXV, gypenoside LXXV] | almost all HeLa cells were inhibited | anti-proliferative activity similar to that of Rg3(S); also recorded: higher anti-cancer effects than those of Rb1 or GypXVII | decreased cell division in a dose-dependent manner | 29.9 µM | –
CC(C)=CCC[C@](C)(O)[C@H]1CC[C@]2(C)[C@@H]1[C@H](O)C[C@@H]1[C@@]3(C)CC[C@H](O[C@@H]4O[C@H](CO)[C@@H](O)[C@H](O)[C@H]4O[C@@H]4O[C@H](CO)[C@@H](O)[C@H](O)[C@H]4O)C(C)(C)[C@@H]3CC[C@]12C [Rg3(S), 20(S)-ginsenoside-Rg3, reference compound] | almost all HeLa cells were inhibited | – | decreased cell division in a dose-dependent manner | – | 23.5 µM
